In patent US10919887B2, “Salts and solid forms of a monobactam antibiotic” (Novartis AG, priority 2015, dated 2021):
In brackets after ≈: the same amount, converted by molar mass.

How the values were obtained:
Photochemical stability = assay type: physicochemical
Protocol: Compound X (500 mg) and L-arginine (332.5 mg) are combined in a vial. Saccharose (crystalline, pyrogen-free sucrose: 1000 mg) is added along with water suitable for injection (8.00 mL). The pH of the solution is adjusted, if necessary, using 1.0N HCl or 1.0N NaOH to arrive at a pH of 5.0±0.5, preferably a pH of 5.0±0.2. This provides a solution containing about 62.5 mg/mL of Compound X as an arginine salt. This solution can be filtered if necessary, and can be lyophilized to provide a white or off-white solid (lyophilizate). The lyophilized solid can be reconstituted with sterile water or a pharmaceutically acceptable aqueous carrier such as isotonic saline or dextrose to provide a solution suitable for intravenous administration. The lyophilizate should be stored in a container that excludes light to protect the lyophilizate from photodegradation. This process can be scaled up or down to provide unit dosages for storage and distribution, or bulk material that can be further processed as desired.
In one embodiment of the invention, Compound X is packaged in a container that substantially reduces exposure to light, preferably in an atmosphere at a relative humidity of 25-50% humidity and more preferably at a relative humidity of 30-40% or 30-45%.

[1] = Stability of Compound X and its salts in aqueous solution; assay type: physicochemical; conditions: in solution, before addition of arginine or other base
Description: It is important for a drug product to be stable enough to avoid significant degradation when it is shipped and stored under commercially practical conditions. The inventors have discovered that Compound X in solution is preferably used and stored at a pH between 4 and 6, preferably between 4.0 and 5.5, for maximum stability in the presence of moisture. Optimal solution stability is achieved at a pH of about 4.0 to 5.5 Accordingly, the invention provides pharmaceutical compositions comprising Compound X at a pH between 4 and 6, preferably between 4.0 and 5.5, and more preferably at a pH of about 5±0.5 or at pH of 5±0.2. Suitable compositions comprise Compound X in an aqueous solution, such as a dextrose or saline solution, which may be isotonic, and may contain other substances such as stabilizers, antioxidants, buffers or pH modifiers, nutrients, and the like. In some of these embodiments, the desired pH is achieved by combining Compound X and a pH modifier suitable to achieve the desired pH in an aqueous solution. Suitable pH modifiers include but are not limited to sodium hydroxide, sodium carbonate, sodium bicarbonate, potassium carbonate, potassium hydroxide, amines such as TRIS (tris(hydroxymethyl)aminomethane), and amino acids such as arginine, lysine, histidine, and the like. Known monobactams, including aztreonam, have been formulated with arginine. […]

E. coli strain 25922 = assay: MIC by broth microdilution, E. coli strain 25922; assay type: cell-based; conditions: Escherichia coli, salt: none, read-out: Inhibitory Concentration (MIC) Ec 25922
Protocol: (§1) Bacterial isolates were cultivated from −70° C. frozen stocks by two consecutive overnight passages at 35° C. in ambient air on 5% blood agar (Remel, Lenexa, Kans.). Quality control and P. aeruginosa ATCC 27853) is from the American Type Culture Collection (ATCC; Rockville, Md.) and PAO1 was received from Dr. K. Poole.
Minimal Inhibitory Concentrations (MICs) were determined by the broth microdilution method in accordance with Clinical and Laboratories Institute (CLSI) guidelines. In brief, fresh overnight bacterial cultures were suspended in sterile saline, and adjusted to a 0.5 McFarland turbidity standard. Bacterial suspensions were then diluted in cation adjusted Mueller-Hinton Broth (MHB II; BBL) to yield a final inoculum of approximately 5×10^5 colony-forming units (CFU)/mL. A master plate of antibiotics was prepared at a concentration equivalent to hundred-fold the highest desired final concentration in 100% dimethyl sulfoxide (DMSO). […] The assay plates were read using a microtiter plate reader (Molecular Devices) at 600 nm as well as by visual observation with a reading mirror. The lowest concentration of the compound that prevented visible growth was recorded as the MIC. Performance of the assay was monitored by testing aztreonam against laboratory quality control strains in accordance with guidelines of the CLSI.

[2] = test system: E. coli NB27273-CDY0033 (KPC2); assay: MIC by broth microdilution, isogenic E. coli expressing KPC2; assay type: cell-based; conditions: Escherichia coli, read-out: Inhibitory Concentration (MIC) Ec KPC2 Iso
Protocol: as §1
Strain NB27273 (BW25113 pspB::Km^r) was obtained from the Keio transposon insertion collection. The strain has the pspB gene replaced by a kanamycin resistance marker (BW25113 pspB::Km^r). This strain was cured of the transposon in pspB via FLP recombinase using published methodology. The resulting strain, BW25113 pspB, was used as a host for multicopy vectors expressing key β-lactamases. Multicopy plasmids directing constitutive expression of β-lactamases were established as follows: Synthetic, codon optimized genes encoding E. coli KPC2 and SHV12-lactamases were made by DNA2.0 (Palo Alto, Calif.). Each of the synthetic fragments were designed to contain NotI and NcoI restriction sites at their termini, allowing ligation into a NotI/NcoI digested pET28a(+) derivative for protein expression. […]

Question: For `Nc1nc(/C(=N/OC2(C(=O)O)CC2)C(=O)N[C@@H]2C(=O)N(S(=O)(=O)O)[C@@H]2CN2CCOC2=O)cs1` [Compound X, 1-(((Z)-(1-(2-aminothiazol-4-yl)-2-oxo-2-(((3S,4R)-2-oxo-4-((2-oxooxazolidin-3-yl)methyl)-1-sulfoazetidin-3-yl)amino)ethylidene)amino)oxy)cyclopropanecarboxylic acid], which photochemical stability (Photochemical stability) is on record?
Answer: degrade photochemically

Question: And the “hydrolytic stability in water” value [1]?
Answer: subject to hydrolytic degradation in water in the absence of a base or outside the pH range of 4-6

Question: And the MIC (E. coli strain 25922)?
Answer: 250 µg/mL

Question: And the MIC [2]?
Answer: 125 µg/mL (≈ 241 µM)
